Test results as given in ChEMBL document CHEMBL1201862, “PubChem BioAssay data set” (2004).
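A five-concentration, 48-hour dose response in 96-well plates underlies each endpoint, interpolated linearly between surrounding concentrations. GI50: concentration for 50% inhibition of growth.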 The source made the active and inactive calls. Rule as the data show it: active = GI50 up to about 1.1 µM and inactive = higher.

Assays:
Test in all cases: growth of human tumour cells (NCI), 48 h
Malme-3M = tested on: Malme-3M
K562 = tested on: K562
OVCAR-4 = tested on: OVCAR-4
NCI-H522 = tested on: NCI-H522
HOP-62 = tested on: HOP-62
LOX IMVI = tested on: LOX IMVI
MDA-MB-231 = tested on: MDA-MB-231
A498 = tested on: A498
BT-549 = tested on: BT-549
NCI-H23 = tested on: NCI-H23
CAKI-1 = tested on: CAKI-1
MDA-N = tested on: MDA-N
SF-295 = tested on: SF-295
SF-539 = tested on: SF-539
TK-10 = tested on: TK-10
SF-268 = tested on: SF-268
MCF7 = tested on: MCF7
M14 = tested on: M14
SN12C = tested on: SN12C
UACC-257 = tested on: UACC-257
SR = tested on: SR
MOLT-4 = tested on: MOLT-4
NCI/ADR-RES = tested on: NCI/ADR-RES
HCT-15 = tested on: HCT-15
A549 = tested on: A549
ACHN = tested on: ACHN
786-0 = tested on: 786-0
UO-31 = tested on: UO-31
NCI-H226 = tested on: NCI-H226
UACC-62 = tested on: UACC-62
HCC 2998 = tested on: HCC 2998
EKVX = tested on: EKVX
Hs-578T = tested on: Hs-578T
SNB-19 = tested on: SNB-19
SW-620 = tested on: SW-620
CCRF-CEM = tested on: CCRF-CEM
COLO 205 = tested on: COLO 205
KM12 = tested on: KM12
IGROV-1 = tested on: IGROV-1
RXF 393 = tested on: RXF 393
OVCAR-5 = tested on: OVCAR-5
DU-145 = tested on: DU-145
HOP-92 = tested on: HOP-92
SK-MEL-2 = tested on: SK-MEL-2
MDA-MB-435 = tested on: MDA-MB-435
SK-MEL-5 = tested on: SK-MEL-5
HCT-116 = tested on: HCT-116
OVCAR-8 = tested on: OVCAR-8
SNB-75 = tested on: SNB-75
HL-60 = tested on: HL-60
SK-OV-3 = tested on: SK-OV-3
HT-29 = tested on: HT-29
RPMI-8226 = tested on: RPMI-8226
T47D = tested on: T47D
U-251 = tested on: U-251
PC-3 = tested on: PC-3
NCI-H460 = tested on: NCI-H460
OVCAR-3 = tested on: OVCAR-3
SK-MEL-28 = tested on: SK-MEL-28

Structure (SMILES): Cc1ccc(/N=N/NCCCCN)cc1
- GI50 (Malme-3M): > 100 µM (inactive)
- GI50 (K562): > 10 µM (inactive)
- GI50 (OVCAR-4): > 100 µM (inactive)
- GI50 (NCI-H522): > 100 µM (inactive)
- GI50 (HOP-62): > 100 µM (inactive)
- GI50 (LOX IMVI): 10.1 µM (inactive)
- GI50 (MDA-MB-231): > 100 µM (inactive)
- GI50 (A498): > 100 µM (inactive)
- GI50 (BT-549): > 100 µM (inactive)
- GI50 (NCI-H23): > 100 µM (inactive)
- GI50 (CAKI-1): > 100 µM (inactive)
- GI50 (MDA-N): > 100 µM (inactive)
- GI50 (SF-295): 19.3 µM (inactive)
- GI50 (SF-539): > 100 µM (inactive)
- GI50 (TK-10): > 100 µM (inactive)
- GI50 (SF-268): > 100 µM (inactive)
- GI50 (MCF7): > 100 µM (inactive)
- GI50 (M14): > 100 µM (inactive)
- GI50 (SN12C): > 100 µM (inactive)
- GI50 (UACC-257): > 100 µM (inactive)
- GI50 (SR): > 100 µM (inactive)
- GI50 (MOLT-4): 7.26 µM (inactive)
- GI50 (NCI/ADR-RES): > 100 µM (inactive)
- GI50 (HCT-15): > 100 µM
- GI50 (A549): 8.75 µM (inactive)
- GI50 (ACHN): 12.6 µM (inactive)
- GI50 (786-0): > 100 µM (inactive)
- GI50 (UO-31): 12.2 µM (inactive)
- GI50 (NCI-H226): > 100 µM (inactive)
- GI50 (UACC-62): > 100 µM (inactive)
- GI50 (HCC 2998): > 100 µM (inactive)
- GI50 (EKVX): > 100 µM (inactive)
- GI50 (Hs-578T): > 100 µM (inactive)
- GI50 (SNB-19): 49.2 µM (inactive)
- GI50 (SW-620): > 100 µM (inactive)
- GI50 (CCRF-CEM): 9.64 µM (inactive)
- GI50 (COLO 205): > 100 µM (inactive)
- GI50 (KM12): 81.7 µM (inactive)
- GI50 (IGROV-1): > 100 µM (inactive)
- GI50 (RXF 393): > 100 µM (inactive)
- GI50 (OVCAR-5): > 100 µM (inactive)
- GI50 (DU-145): > 100 µM (inactive)
- GI50 (HOP-92): > 100 µM (inactive)
- GI50 (SK-MEL-2): > 100 µM (inactive)
- GI50 (MDA-MB-435): > 100 µM (inactive)
- GI50 (SK-MEL-5): 23.8 µM (inactive)
- GI50 (HCT-116): > 100 µM (inactive)
- GI50 (OVCAR-8): > 100 µM (inactive)
- GI50 (SNB-75): > 100 µM (inactive)
- GI50 (HL-60): 3.79 µM (inactive)
- GI50 (SK-OV-3): > 100 µM (inactive)
- GI50 (HT-29): > 100 µM (inactive)
- GI50 (RPMI-8226): 5.86 µM (inactive)
- GI50 (T47D): > 100 µM (inactive)

Structure (SMILES): COc1cccc(-c2cc(O)c3cc(OC)ccc3n2)c1
- GI50 (Malme-3M): 0.0553 µM (active)
- GI50 (K562): 0.128 µM (active)
- GI50 (OVCAR-4): 1.71 µM (inactive)
- GI50 (U-251): 0.305 µM (active)
- GI50 (HOP-62): 0.446 µM (active)
- GI50 (LOX IMVI): 0.439 µM (active)
- GI50 (MDA-MB-231): 0.368 µM (active)
- GI50 (A498): 0.0158 µM (active)
- GI50 (BT-549): 0.392 µM (active)
- GI50 (NCI-H23): 0.32 µM (active)
- GI50 (CAKI-1): 0.475 µM (active)
- GI50 (MDA-N): 0.047 µM (active)
- GI50 (SF-295): 0.18 µM (active)
- GI50 (PC-3): 0.338 µM (active)
- GI50 (SF-539): 0.188 µM (active)
- GI50 (TK-10): 0.5 µM (active)
- GI50 (SF-268): 0.71 µM (active)
- GI50 (MCF7): 0.364 µM (active)
- GI50 (M14): 0.235 µM (active)
- GI50 (SN12C): 0.685 µM (active)
- GI50 (UACC-257): 0.865 µM (active)
- GI50 (SR): 0.0815 µM (active)
- GI50 (MOLT-4): 0.311 µM (active)
- GI50 (NCI/ADR-RES): 0.173 µM (active)
- GI50 (HCT-15): 0.366 µM
- GI50 (NCI-H460): 0.365 µM (active)
- GI50 (A549): 0.367 µM (active)
- GI50 (ACHN): 1.74 µM (inactive)
- GI50 (786-0): 0.376 µM (active)
- GI50 (UO-31): 0.426 µM (active)
- GI50 (NCI-H226): 0.396 µM (active)
- GI50 (UACC-62): 0.182 µM (active)
- GI50 (HCC 2998): 0.291 µM (active)
- GI50 (EKVX): 0.92 µM (active)
- GI50 (Hs-578T): 0.24 µM (active)
- GI50 (SNB-19): 0.39 µM (active)
- GI50 (SW-620): 0.281 µM (active)
- GI50 (CCRF-CEM): 0.195 µM (active)
- GI50 (COLO 205): 0.201 µM (active)
- GI50 (KM12): 0.396 µM (active)
- GI50 (IGROV-1): 0.483 µM (active)
- GI50 (RXF 393): 0.199 µM (active)
- GI50 (OVCAR-3): 0.188 µM (active)
- GI50 (OVCAR-5): 0.452 µM (active)
- GI50 (DU-145): 0.429 µM (active)
- GI50 (HOP-92): 0.488 µM (active)
- GI50 (SK-MEL-2): 0.321 µM (active)
- GI50 (SK-MEL-5): 0.182 µM (active)
- GI50 (HCT-116): 0.239 µM (active)
- GI50 (OVCAR-8): 0.344 µM (active)
- GI50 (SNB-75): 0.318 µM (active)
- GI50 (HL-60): 0.0791 µM (active)
- GI50 (SK-OV-3): 0.208 µM (active)
- GI50 (HT-29): 0.33 µM (active)
- GI50 (RPMI-8226): 0.34 µM (active)
- GI50 (T47D): > 10 µM (inactive)

Structure (SMILES): N#CC(c1ccccc1)N(CCc1ccccc1)C(=O)c1ccc(C(=O)N(CCc2ccccc2)C(C#N)c2ccccc2)cc1 (stereo not given)
- GI50 (Malme-3M): 19.3 µM (inactive)
- GI50 (K562): 20.9 µM (inactive)
- GI50 (SK-MEL-28): 22.8 µM (inactive)
- GI50 (OVCAR-4): 18.9 µM (inactive)
- GI50 (U-251): 24.3 µM (inactive)
- GI50 (LOX IMVI): 17.9 µM (inactive)
- GI50 (MDA-MB-231): 24.6 µM (inactive)
- GI50 (A498): 30.5 µM (inactive)
- GI50 (BT-549): 14.5 µM (inactive)
- GI50 (NCI-H23): 25.5 µM (inactive)
- GI50 (CAKI-1): 30.6 µM (inactive)
- GI50 (MDA-N): 24 µM (inactive)
- GI50 (SF-295): 18.5 µM (inactive)
- GI50 (PC-3): 21.7 µM (inactive)
- GI50 (SF-539): 19.5 µM (inactive)
- GI50 (TK-10): 13.9 µM (inactive)
- GI50 (SF-268): 22 µM (inactive)
- GI50 (MCF7): 30.3 µM (inactive)
- GI50 (M14): 24.4 µM (inactive)
- GI50 (SN12C): 19.5 µM (inactive)
- GI50 (UACC-257): 18.1 µM (inactive)
- GI50 (MOLT-4): > 10 µM (inactive)
- GI50 (NCI/ADR-RES): 17.9 µM (inactive)
- GI50 (HCT-15): 18.6 µM
- GI50 (NCI-H460): 18.5 µM (inactive)
- GI50 (A549): 26.7 µM (inactive)
- GI50 (ACHN): 24 µM (inactive)
- GI50 (786-0): 22.6 µM (inactive)
- GI50 (UO-31): 19.4 µM (inactive)
- GI50 (NCI-H226): 17 µM (inactive)
- GI50 (UACC-62): 15.5 µM (inactive)
- GI50 (HCC 2998): 15.3 µM (inactive)
- GI50 (EKVX): 34.4 µM (inactive)
- GI50 (Hs-578T): 12.9 µM (inactive)
- GI50 (SNB-19): 30.5 µM (inactive)
- GI50 (SW-620): 22.9 µM (inactive)
- GI50 (CCRF-CEM): 26.1 µM (inactive)
- GI50 (COLO 205): 21.9 µM (inactive)
- GI50 (KM12): 32.9 µM (inactive)
- GI50 (IGROV-1): 23.9 µM (inactive)
- GI50 (RXF 393): 21.3 µM (inactive)
- GI50 (OVCAR-3): 17.1 µM (inactive)
- GI50 (OVCAR-5): 19.8 µM (inactive)
- GI50 (DU-145): 42.6 µM (inactive)
- GI50 (HOP-92): 12.9 µM (inactive)
- GI50 (SK-MEL-2): 19.6 µM (inactive)
- GI50 (MDA-MB-435): 22.9 µM (inactive)
- GI50 (SK-MEL-5): 13.5 µM (inactive)
- GI50 (HCT-116): 14.3 µM (inactive)
- GI50 (OVCAR-8): 17.6 µM (inactive)
- GI50 (SNB-75): 19.3 µM (inactive)
- GI50 (HL-60): 22.9 µM (inactive)
- GI50 (SK-OV-3): 31.9 µM (inactive)
- GI50 (HT-29): 19 µM (inactive)
- GI50 (T47D): 16.9 µM (inactive)
